# Results taken from patent US20140302012A1, “Combination Therapies for Treating Hematologic Malignancies Using Pyridopyrimidinone Inhibitors of PI3K/mTOR with Bendamustine and/or Rituximab” (priority 2011, published 2014).
# Like-named read-outs stand apart in the source and are kept apart here.
# Legend:
# [1] = format: in vivo
# Description: The animals required to begin a given experiment were pooled and implanted monolaterally on day 0. Treatments were administered on measurable tumors. The solid tumors were allowed to grow to the desired volume range (animals with tumors not in the desired range were excluded). The mice were then pooled and unselectively distributed to the various treatment and control groups. Treatment started 20 days post WSU-DLCL2 tumor fragment implantation as indicated in the results section and in each table. The dosages are expressed in mg/kg, based on the body weight at start of therapy. Mice were checked daily, and adverse clinical reactions noted. Each group of mice was weighed as a whole daily until the weight nadir was reached. Then, groups were weighed once to thrice weekly until the end of the experiment. Tumors were measured with a calliper 2 to 3 times weekly until final sacrifice for sampling time, tumor reached 2000 mm^3 or until the animal died (whichever comes first). Solid tumor volumes were estimated from two-dimensional tumor measurements and calculated according to the following equation: […]
# The day of death was recorded. Surviving animals were sacrificed and macroscopic examination of the thoracic and abdominal cavities was performed.
# A dosage producing a 15% body weight loss (BWL) during three consecutive days (mean of group), 20% BWL during 1 day or 10% or more drug deaths was considered an excessively toxic dosage. Animal body weights included the tumor weight.
# [2] = system: human WSU-DLCL2; test: Antitumor activity against human WSU-DLCL2 xenografts in SCID female mice; format: in vivo; settings: for Median (nMad) tumor volume changes from baseline: n = 7
# Description: To evaluate the antitumor activity of Bendamustine in combination with the dual pan-PI3K/mTOR inhibitor Compound A, experiments were conducted using female SCID mice bearing human WSU-DLCL2 xenografts. In this study, Bendamustine at 3.5 and 7 mg/kg was tested in combination with Compound A at 20 mg/kg.
# CB17/1CR-Prkdc severe combined immunodeficiency (SCID)/Crl mice, at 8-10 weeks old, were bred at Charles River France (Domaine des Oncins, 69210 L'Arbreste, France) from strains obtained from Charles River, USA. Mice were over 18 g at start of treatment after an acclimatization time of at least 5 days. […] They were housed on a 12 hours light/dark cycle. Environmental conditions including animal maintenance, room temperature (22° C.±2° C.), relative humidity (55%±15%) and lighting times were recorded by the supervisor of laboratory animal sciences and welfare (LAW) and the records are archived.
# The human WSU-DLCL2 tumor model was established by implanting (SC) small tumor fragments and was maintained in SCID female mice using serial passages.
# Bendamustine formulation was prepared by incorporating the compound into NaCl 0.9% at pH 3. The preparation was prepared daily prior administration. The volume of IP administration per mouse was 10 mL/kg.
# (§1) Compound A formulations were prepared in 1N HCl and water for injection, final pH was 3, followed by five cycles of vortexing and sonicating. The stock solution was chemically stable 7 days in the dark at 4° C. The volume of PO administration per mouse was 10 mL/kg.
# For subcutaneous implantation of tumor cells, skin in the flank of the mice was disinfected using alcohol or Betadine® solution (Alcyon) and a suspension of tumor cells was inoculated SC unilaterally under a volume of 0.2 mL using a 23 G needle.
# The animals required to begin a given experiment were pooled and implanted monolaterally on day 0. Treatments were administered on measurable tumors. The solid tumors were allowed to grow to the desired volume range (animals with tumors not in the desired range were excluded). The mice were then pooled and unselectively distributed to the various treatment and control groups. […] The dosages are expressed in mg/kg, based on the body weight at start of therapy. Mice were checked daily, and adverse clinical reactions noted. Each group of mice was weighed as a whole daily until the weight nadir was reached. Then, groups were weighed once to thrice weekly until the end of the experiment. Tumors were measured with a calliper 2 to 3 times weekly until final sacrifice for sampling time, tumor reached 2000 mm^3 or until the animal died (whichever comes first). Solid tumor volumes were estimated from two-dimensional tumor measurements and calculated according to the following equation:
# Tumor weight (mg)=Length (mm)×Width^2(mm^2)/2
# The primary efficacy end points are ΔT/ΔC, percent median regression, partial and complete regressions (PR and CR).
# Changes in tumor volume for each treated (T) and control (C) group were calculated for each tumor by subtracting the tumor volume on the day of first treatment (staging day) from the tumor volume on the specified observation day. The median ΔT is calculated for the treated group, and the median ΔC is calculated for the control group. Then the ratio ΔT/ΔC is calculated and expressed as a percentage. The dose is considered as therapeutically active when ΔT/ΔC is lower than 40% and very active when ΔT/ΔC is lower than 10%.
# Partial regression: Regressions are defined as partial if the tumor volume decreases to 50% or the tumor volume at the start of treatment.
# Complete regression: The CR is achieved when tumor volume=0 mm^3 (CR is considered when tumor volume cannot be recorded).
# The term “therapeutic synergy” is used when the combination of two products at given doses is more efficacious than the best of the two products alone considering the same doses.
# [3] = Chemical stability of Compound A stock solution; format: physicochemical; settings: formulation in 1N HCl and water for injection, final pH 3; in the dark at 4° C.
# Description: as §1
# [4] = Maximum tolerated dose of Compound A administered as single agent; settings: twice daily
# [5] = Bendamustine 3.5 mg/kg per injection (total 21) IP, days 20-25
# [6] = Bendamustine 7 mg/kg per injection (total 42) IP, days 20-25
# [7] = Compound A 20 mg/kg per injection (total 240) PO, days 20-31
smiles,measurement,setting,value
"Cn1c(CCCC(=O)O)nc2cc(N(CCCl)CCCl)ccc21 [Bendamustine, 4-[5-[Bis(2-chloroethyl)amino]-1-methylbenzimidazol-2-yl]butanoic acid]",Average body weight change in % per mouse at nadir,[1]; [5],−3.8%
same,Drug death (Day of death),[1]; [5],0/7
same,day of nadir (body weight),[1]; [5],28 days
same,Average body weight change in % per mouse at nadir,[1]; [6],−7.2%
same,Drug death (Day of death),[1]; [6],0/7
same,day of nadir (body weight),[1]; [6],27 days
same,Tolerability,"[1]; as single agents or in combination: Bendamustine 3.5 and 7 mg/kg, Compound A 20 mg/kg",tolerated
same,Regressions Complete,[2]; [5],0/7
same,Regressions Partial,[2]; [5],0/7
same,Median (nMad) tumor volume changes from baseline,"[2]; Bendamustine 3.5 mg/kg, Day 24",170 (62.3)
same,Median (nMad) tumor volume changes from baseline,"[2]; Bendamustine 3.5 mg/kg, Day 26",222 (89)
same,Median (nMad) tumor volume changes from baseline,"[2]; Bendamustine 3.5 mg/kg, Day 28",268 (252)
same,Median (nMad) tumor volume changes from baseline,"[2]; Bendamustine 3.5 mg/kg, Day 31",483 (247.6)
same,Regressions Complete,[2]; [6],0/7
same,Regressions Partial,[2]; [6],0/7
same,Median (nMad) tumor volume changes from baseline,"[2]; Bendamustine 7 mg/kg, Day 24",267 (198.7)
same,Median (nMad) tumor volume changes from baseline,"[2]; Bendamustine 7 mg/kg, Day 26",317 (258)
same,Median (nMad) tumor volume changes from baseline,"[2]; Bendamustine 7 mg/kg, Day 28",306 (268.4)
same,Median (nMad) tumor volume changes from baseline,"[2]; Bendamustine 7 mg/kg, Day 31",477 (249.1)
"CCn1c(=O)c(-c2ccn[nH]2)cc2c(C)nc(N)nc21 [Compound A, 2-amino-8-ethyl-4-methyl-6-(1H-pyrazol-5-yl)pyrido[2,3-d]pyrimidin-7(8H)-one]",Chemical stability of stock solution,[3],7 days
same,Drug death (Day of death),[1]; [7],0/7
same,Average body weight change in % per mouse at nadir,"[1]; mouse, in vivo, po, 20 mg/kg",−2.0%
same,day of nadir (body weight),"[1]; mouse, in vivo, po, 20 mg/kg",21 days
same,MTD of Compound A administered as single agent,[4],50 mg BID
same,Regressions Complete,[2]; [7],0/7
same,Regressions Partial,[2]; [7],0/7
same,Median ΔT/ΔC in % day 31,"[2]; Compound A 20 mg/kg per injection (total 240) PO, days 20-31, day 31, 20 mg/kg",54%
same,Median (nMad) tumor volume changes from baseline,"[2]; Compound A 20 mg/kg, Day 24",145 (139.4)
same,Median (nMad) tumor volume changes from baseline,"[2]; Compound A 20 mg/kg, Day 26",218 (26.7)
same,Median (nMad) tumor volume changes from baseline,"[2]; Compound A 20 mg/kg, Day 28",242 (172)
same,Median (nMad) tumor volume changes from baseline,"[2]; Compound A 20 mg/kg, Day 31",314 (317.3)
